Measurements: ChEMBL document CHEMBL4400555, “Structure-activity relationships of trichothecenes against COLO201 cells and Cochliobolus miyabeanus: The role of 12-epoxide and macrocyclic moieties” (Bioorg Med Chem Lett, 2019)
The source made the active and inactive calls. No cut-off for these calls is given here.

Tests used:
COLO 201 = assay: Antiproliferative activity against human COLO201 cells after 24 hrs by WST-1 assay; type: functional, cell-based
Bipolaris oryzae [1] = assay: Antifungal activity against Cochliobolus miyabeanus 131004 assessed as zone of inhibition at 500 ug/disk after 4 days by paper disk method; type: functional; details: Bipolaris oryzae, 131004, 96 h; read-out: IZ
Bipolaris oryzae [2] = assay: Antifungal activity against Cochliobolus miyabeanus 131004 assessed as zone of inhibition at 100 ug/disk after 4 days by paper disk method; type: functional; details: Bipolaris oryzae, 131004, 96 h; read-out: IZ
Bipolaris oryzae [3] = assay: Antifungal activity against Cochliobolus miyabeanus 131004 assessed as zone of inhibition at 10 ug/disk after 4 days by paper disk method; type: functional; details: Bipolaris oryzae, 131004, 96 h; read-out: IZ
Bipolaris oryzae [4] = assay: Antifungal activity against Cochliobolus miyabeanus 131004 assessed as zone of inhibition at 50 ug/disk after 4 days by paper disk method; type: functional, organism-based

Row | Compound | IC50 (COLO 201; colo 201) [µM] | IC50 (COLO 201; Homo sapiens, COLO 201, 24 h) [µM] | zone of inhibition at 10 µg/disc (Bipolaris oryzae [3]) [mm] | also measured
1 | CC(=O)O[C@@H]1C[C@H]2O[C@@H]3C=C(C)CC[C@]3(C)[C@]1(C)[C@]21CO1 | 123 |  |  | 
2 | CC(=O)O[C@H]1C[C@@]23COC(=O)/C=C(\C)C[C@@H]4O[C@@H](C)[C@H](/C=C/C=C\C(=O)O[C@@H]5C[C@@H](O[C@@H]2C=C1C)[C@@]1(CO1)[C@]53C)O4 | 46 |  |  | 
3 | CC1=C[C@H]2O[C@@H]3C[C@H]4OC(=O)/C=C\C=C\[C@@H]5O[C@H](C/C(C)=C/C(=O)OC[C@@]2(CC1)[C@]4(C)[C@]31CO1)O[C@H]5C | 82 |  |  | 
4 | C=C1[C@H]2C[C@H]3OC(=O)/C=C\C=C\[C@@H]([C@@H](C)O)OCC/C(C)=C/C(=O)OC[C@@]4(CCC(C)=C[C@H]4O2)[C@]13C |  | 51 | 0 | zone of inhibition at 500 µg/disc (Bipolaris oryzae [1]): 0 mm; zone of inhibition at 100 µg/disc (Bipolaris oryzae [2]): 0 mm
5 | C=C1[C@H]2C[C@H]3OC(=O)/C=C\C=C\[C@@H]4O[C@@H](O[C@H]4C)[C@H](O)/C(C)=C/C(=O)OC[C@@]4(CCC(C)=C[C@H]4O2)[C@]13C |  | 50 | 0 | zone of inhibition at 500 µg/disc (Bipolaris oryzae [1]): 0 mm; zone of inhibition at 100 µg/disc (Bipolaris oryzae [2]): 0 mm
6 | CC1=C[C@H]2O[C@@H]3[C@H](O)C[C@](C)([C@@]2(CO)[C@H](O)C1=O)[C@]31CO1 [DEOXYNIVALENOL] | 86 |  |  | 
7 | C=C1[C@H]2C[C@@H](OC(C)=O)[C@]1(C)[C@@]1(C)CCC(C)=C[C@H]1O2 |  | 420 | 0 | zone of inhibition at 500 µg/disc (Bipolaris oryzae [1]): 0 mm; zone of inhibition at 100 µg/disc (Bipolaris oryzae [2]): 0 mm
8 | CC1=C[C@H]2O[C@@H]3C[C@H]4OC(=O)/C=C\C=C\[C@@H]5O[C@@H](O[C@H]5C)[C@H](O)/C(C)=C/C(=O)OC[C@@]2(CC1)[C@]4(C)[C@]31CO1 | 42 |  |  | 
9 | C=C1[C@H]2CC[C@]1(C)[C@@]1(CO)[C@H](O)C(=O)C(C)=C[C@H]1O2 |  | > 700 | 0 | inhibition zone (IZ) (Bipolaris oryzae [4]): inactive
10 | CC1=C[C@H]2O[C@@H]3C[C@H]4OC(=O)/C=C\C=C\[C@@H]([C@@H](C)O)OCC/C(C)=C/C(=O)OC[C@@]2(CC1)[C@]4(C)[C@]31CO1 | 47 |  |  | 
11 | CC1=C[C@H]2O[C@@H]3C[C@H]4OC(=O)/C=C\C=C\[C@@H]5O[C@H](C/C(C)=C/C(=O)OC[C@@]2(C[C@@H]1O)[C@]4(C)[C@]31CO1)O[C@H]5C | 51 |  |  | 
